Test results: PubChem BioAssay AID192 (DTP/NCI, 2004)
“And” between values parts separate entries of the source, which are not always exact repeats. Equal values may be shown once. Toxic doses and inconclusive results are not listed.

Tested on: BDF1 mice, B16 melanoma ip, median survival T/C
Assay: NCI In Vivo Anticancer Drug Screen. Data for tumor model B16 Melanoma (intraperitoneal) in B6D2F1 (BDF1) mice
Settings: endpoint: median survival time, higher = longer survival
Summary of the method: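 In this screen, activity was judged from survival or tumor size in treated versus vehicle-treated tumor-bearing mice, reported as T/C.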

[1] = dose: 100.0 mg/kg/injection, schedule: Q01DX009 (ip), vehicle: saline with Tween-80
[2] = dose: 200.0 mg/kg/injection, schedule: Q01DX009 (ip), vehicle: saline with Tween-80
[3] = dose: 100.0 mg/kg/injection, schedule: Q01DX009 (ip), vehicle: Klucel (hydroxypropylcellulose) (HPC)
[4] = dose: 200.0 mg/kg/injection, schedule: Q01DX009 (ip), vehicle: Klucel (hydroxypropylcellulose) (HPC)
[5] = dose: 400.0 mg/kg/injection, schedule: Q01DX009 (ip), vehicle: Klucel (hydroxypropylcellulose) (HPC)
[6] = dose: 100.0 mg/kg/injection, schedule: Q04DX003 (ip), vehicle: Klucel (hydroxypropylcellulose) (HPC)
[7] = dose: 200.0 mg/kg/injection, schedule: Q04DX003 (ip), vehicle: Klucel (hydroxypropylcellulose) (HPC)
[8] = dose: 400.0 mg/kg/injection, schedule: Q04DX003 (ip), vehicle: Klucel (hydroxypropylcellulose) (HPC)
[9] = dose: 25.0 mg/kg/injection, schedule: Q01DX009 (ip), vehicle: saline with Tween-80
[10] = dose: 50.0 mg/kg/injection, schedule: Q01DX009 (ip), vehicle: saline
[11] = dose: 25.0 mg/kg/injection, schedule: Q01DX009 (ip), vehicle: Klucel (hydroxypropylcellulose) (HPC)
[12] = dose: 50.0 mg/kg/injection, schedule: Q01DX009 (ip), vehicle: Klucel (hydroxypropylcellulose) (HPC)
[13] = dose: 6.25 mg/kg/injection, schedule: Q01DX009 (ip), vehicle: saline with Tween-80
[14] = dose: 12.5 mg/kg/injection, schedule: Q01DX009 (ip), vehicle: saline with Tween-80
[15] = dose: 50.0 mg/kg/injection, schedule: Q01DX009 (ip), vehicle: saline with Tween-80
[16] = dose: 12.5 mg/kg/injection, schedule: Q01DX009 (ip), vehicle: Klucel (hydroxypropylcellulose) (HPC)
[17] = dose: 6.25 mg/kg/injection, schedule: Q01DX009 (ip), vehicle: saline
[18] = dose: 12.5 mg/kg/injection, schedule: Q01DX009 (ip), vehicle: saline
[19] = dose: 25.0 mg/kg/injection, schedule: Q01DX009 (ip), vehicle: saline

COc1ccc(CC2C(=O)NC(C)C(=O)N(C)C3C(=O)N(C)C(Cc4ccc(O)c(c4)Oc4ccc(cc4)C3O)C(=O)NC(C)C(=O)NC(C)C(=O)N2C)cc1 (configuration not stated) (tested in a mixture with another compound)
T/C (dose: 0.12 mg/kg/injection, schedule: Q01DX009 (ip), vehicle: other): 97 % of control | T/C (dose: 0.25 mg/kg/injection, schedule: Q01DX009 (ip), vehicle: other): 109 % of control | T/C (dose: 0.5 mg/kg/injection, schedule: Q01DX009 (ip), vehicle: other): 161 % of control | T/C (dose: 1.0 mg/kg/injection, schedule: Q01DX009 (ip), vehicle: other): 152 % of control | T/C (dose: 1.0 mg/kg/injection, schedule: Q01DX009 (ip), vehicle: saline with Tween-80): 154 % of control | T/C (dose: 2.0 mg/kg/injection, schedule: Q01DX009 (ip), vehicle: saline with Tween-80): 157 % of control | T/C (dose: 250.0 micrograms/kg/injection, schedule: Q01DX009 (ip), vehicle: saline): 152 % of control | T/C (dose: 2000.0 micrograms/kg/injection, schedule: Q01DX009 (ip), vehicle: saline): 154 % of control

O=C(O)CSC(CC(=O)O)C(=O)O (configuration not stated)
T/C (dose: 200.0 mg/kg/injection, schedule: Q01DX009 (ip), vehicle: saline): 106 % of control | T/C (dose: 400.0 mg/kg/injection, schedule: Q01DX009 (ip), vehicle: saline): 106 % of control

C/C(CCC(=O)O)=N\NC(N)=O
T/C [1]: 88 % of control | T/C [2]: 88 % of control | T/C (dose: 400.0 mg/kg/injection, schedule: Q01DX009 (ip), vehicle: saline with Tween-80): 100 % of control

COc1ccc(C2CCc3cc4c(cc3/C2=N/OC(C)=O)OCO4)cc1OC (configuration not stated)
T/C [3]: 109 % of control | T/C [4]: 110 % of control | T/C [5]: 105 % of control

Cc1ccc(NC(=O)c2ccc(Cl)cc2)cc1Cl
T/C (dose: 75.0 mg/kg/injection, schedule: Q01DX009 (ip), vehicle: Klucel (hydroxypropylcellulose) (HPC)): 100 % of control | T/C (dose: 150.0 mg/kg/injection, schedule: Q01DX009 (ip), vehicle: Klucel (hydroxypropylcellulose) (HPC)): 115 % of control | T/C (dose: 300.0 mg/kg/injection, schedule: Q01DX009 (ip), vehicle: Klucel (hydroxypropylcellulose) (HPC)): 88 % of control

CCc1ccccc1NC(=O)Nc1ccccc1C
T/C [6]: 87 % of control | T/C [7]: 87 % of control | T/C [8]: 87 % of control

Nc1ccc(OCc2ccccc2)cc1
T/C [9]: 109 % of control

COC(=O)/C(C#N)=N/O
T/C (dose: 9.37 mg/kg/injection, schedule: Q04DX003 (ip), vehicle: saline with Tween-80): 95 % of control | T/C (dose: 18.75 mg/kg/injection, schedule: Q04DX003 (ip), vehicle: saline with Tween-80): 110 % of control | T/C (dose: 37.5 mg/kg/injection, schedule: Q04DX003 (ip), vehicle: saline with Tween-80): 100 % of control | T/C [10]: 107 % of control | T/C (dose: 75.0 mg/kg/injection, schedule: Q04DX003 (ip), vehicle: saline): 91 % of control | T/C (dose: 100.0 mg/kg/injection, schedule: Q01DX009 (ip), vehicle: saline): 92 % of control

CCCCNC(=O)Nc1ccccc1CC
T/C [6]: 110 % of control | T/C [7]: 103 % of control | T/C [8]: 96 % of control

CC(=O)CC(=O)Nc1ccc2ccccc2c1
T/C [11]: 93 % of control | T/C [12]: 90 % of control | T/C [3]: 93 % of control

O=CCC(O)C(O)C(O)CO (configuration not stated)
T/C (dose: 300.0 mg/kg/injection, schedule: Q01DX009 (ip), vehicle: suspension in saline): 104 % of control | T/C (dose: 600.0 mg/kg/injection, schedule: Q01DX009 (ip), vehicle: suspension in saline): 100 % of control | T/C (dose: 1200.0 mg/kg/injection, schedule: Q01DX009 (ip), vehicle: suspension in saline): 100 % of control | T/C (dose: 1800.0 mg/kg/injection, schedule: Q01DX009 (ip), vehicle: suspension in saline): 101 % of control

O=C1NC(c2ccccc2)N=C2Oc3ccccc3C=C12 (configuration not stated)
T/C (dose: 1.56 mg/kg/injection, schedule: Q01DX009 (ip), vehicle: saline with Tween-80): 107 % of control | T/C (dose: 3.12 mg/kg/injection, schedule: Q01DX009 (ip), vehicle: saline with Tween-80): 109 % of control and 113 % of control | T/C [13]: 108 % of control and 117 % of control | T/C [14]: 117 % of control | T/C [9]: 117 % of control

COc1ccc(Br)cc1
T/C [15]: 100 % of control | T/C [1]: 104 % of control

CNC(Cc1ccccc1)C1CCCCC1 (configuration not stated)
T/C (dose: 6.25 mg/kg/injection, schedule: Q04DX003 (ip), vehicle: Klucel (hydroxypropylcellulose) (HPC)): 102 % of control | T/C (dose: 12.5 mg/kg/injection, schedule: Q04DX003 (ip), vehicle: Klucel (hydroxypropylcellulose) (HPC)): 100 % of control | T/C (dose: 25.0 mg/kg/injection, schedule: Q04DX003 (ip), vehicle: Klucel (hydroxypropylcellulose) (HPC)): 96 % of control

NCOC(=O)Cc1ccc(Br)cc1
T/C [3]: 97 % of control | T/C [4]: 97 % of control | T/C [5]: 89 % of control

CCCC(C)C(C(=O)O)c1ccccc1 (configuration not stated)
T/C [1]: 110 % of control | T/C [2]: 106 % of control | T/C (dose: 300.0 mg/kg/injection, schedule: Q01DX009 (ip), vehicle: saline with Tween-80): 91 % of control

CSc1ccc(NC(=O)CCl)cc1
T/C [14]: 95 % of control | T/C [9]: 105 % of control | T/C [15]: 96 % of control

CN(CCOc1ccccc1O)CCOc1ccccc1O
T/C [3]: 111 % of control | T/C [4]: 105 % of control

CCCCCCCCCCCCCCCCCC(=O)NN
T/C [16]: 103 % of control | T/C [11]: 98 % of control | T/C [12]: 105 % of control | T/C (dose: 100.0 mg/kg/injection, schedule: Q01DX009 (ip), vehicle: carboxymethylcellulose (CMC)): 94 % of control

[Cl][Pt+2][Cl].[NH-]CCO.[NH-]CCO
T/C (dose: 3.13 mg/kg/injection, schedule: Q01DX009 (ip), vehicle: saline): 100 % of control | T/C [17]: 104 % of control | T/C [18]: 104 % of control

FC(F)(F)c1cc(CN(CCCl)CCCl)cc(C(F)(F)F)c1
T/C [18]: 97 % of control | T/C [19]: 92 % of control

O=C(O)CC(NC(=O)c1ccccc1)C(=O)O (configuration not stated)
T/C [13]: 100 % of control | T/C [14]: 102 % of control | T/C [9]: 109 % of control | T/C [15]: 93 % of control and 100 % of control

Cc1c(C)c([N+](=O)[O-])c(Br)c(C)c1[N+](=O)[O-]
T/C [6]: 91 % of control | T/C [7]: 98 % of control

CCCCCCCCCCCCCCCC(=O)N(C/C=C/CN(C(=O)CCCCCCCCCCCCCCC)C(C)CCCN(CC)CC)C(C)CCCN(CC)CC (configuration not stated)
T/C (dose: 3.13 mg/kg/injection, schedule: Q01DX009 (ip), vehicle: other): 98 % of control | T/C (dose: 6.25 mg/kg/injection, schedule: Q01DX009 (ip), vehicle: other): 99 % of control | T/C (dose: 12.5 mg/kg/injection, schedule: Q01DX009 (ip), vehicle: other): 93 % of control

CC12C=CC(CC1)C2OC(=O)c1ccccc1C(=O)O (configuration not stated)
T/C [16]: 108 % of control | T/C [12]: 94 % of control | T/C [3]: 100 % of control | T/C [4]: 94 % of control

CN1CCC(=C2c3ccccc3C=Cc3ccccc32)CC1
T/C (dose: 3.12 mg/kg/injection, schedule: Q01DX009 (ip), vehicle: saline): 110 % of control | T/C [17]: 102 % of control | T/C [19]: 105 % of control | T/C [10]: 105 % of control

CC1(C)N=C(N)N=C(N)N1c1cccc(Cl)c1
T/C (dose: 5.0 mg/kg/injection, schedule: Q01DX009 (ip), vehicle: saline): 115 % of control | T/C (dose: 10.0 mg/kg/injection, schedule: Q01DX009 (ip), vehicle: saline): 115 % of control | T/C (dose: 10.0 mg/kg/injection, schedule: Q04DX003 (ip), vehicle: saline): 118 % of control | T/C (dose: 20.0 mg/kg/injection, schedule: Q01DX009 (ip), vehicle: saline): 120 % of control | T/C (dose: 20.0 mg/kg/injection, schedule: Q04DX003 (ip), vehicle: saline): 117 % of control | T/C (dose: 40.0 mg/kg/injection, schedule: Q01DX009 (ip), vehicle: saline): 120 % of control
